20 compounds from ChEMBL document CHEMBL1153074, “Novel, achiral aminoheterocycles as selective monoamine reuptake inhibitors” (Bioorg Med Chem Lett, 2009) can be followed below.

Molecules are shown by their SMILES.

Data set [1] deals with Sodium-dependent serotonin transporter (Homo sapiens, UniProt P31645).
Data set [2] deals with Sodium-dependent noradrenaline transporter (Homo sapiens, UniProt P23975).
The target in data set [3] is Sodium-dependent dopamine transporter (Homo sapiens, UniProt Q01959).
Chain of Sodium-dependent dopamine transporter (Q01959 whole entry): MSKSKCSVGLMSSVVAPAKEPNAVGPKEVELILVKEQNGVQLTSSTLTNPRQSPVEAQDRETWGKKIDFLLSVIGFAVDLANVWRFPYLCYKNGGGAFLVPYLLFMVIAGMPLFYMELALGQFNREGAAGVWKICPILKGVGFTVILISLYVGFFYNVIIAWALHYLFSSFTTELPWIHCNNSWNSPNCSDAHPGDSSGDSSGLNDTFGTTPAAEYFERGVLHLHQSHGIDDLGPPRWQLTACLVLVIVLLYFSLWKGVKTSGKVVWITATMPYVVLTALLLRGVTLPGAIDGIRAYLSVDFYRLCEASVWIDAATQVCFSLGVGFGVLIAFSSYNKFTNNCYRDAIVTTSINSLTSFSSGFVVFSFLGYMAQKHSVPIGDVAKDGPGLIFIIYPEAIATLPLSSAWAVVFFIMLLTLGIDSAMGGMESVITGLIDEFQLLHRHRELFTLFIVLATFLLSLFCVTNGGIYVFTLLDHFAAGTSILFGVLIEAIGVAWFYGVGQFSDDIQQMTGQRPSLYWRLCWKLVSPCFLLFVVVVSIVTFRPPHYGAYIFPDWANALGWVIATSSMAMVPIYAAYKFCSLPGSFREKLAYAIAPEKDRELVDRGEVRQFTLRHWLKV
Data set [4] concerns the target hERG (KCNH2) (Homo sapiens, UniProt Q12809). Description: in vitro. To be noted: CHO cells expressing human ERG.
Description: Inhibition of human ERG expressed in CHO cells
The target in data set [5] is CYP2D6 (Homo sapiens, UniProt P10635). The experiment in a line: in vitro.
Chain of CYP2D6 (P10635 whole entry): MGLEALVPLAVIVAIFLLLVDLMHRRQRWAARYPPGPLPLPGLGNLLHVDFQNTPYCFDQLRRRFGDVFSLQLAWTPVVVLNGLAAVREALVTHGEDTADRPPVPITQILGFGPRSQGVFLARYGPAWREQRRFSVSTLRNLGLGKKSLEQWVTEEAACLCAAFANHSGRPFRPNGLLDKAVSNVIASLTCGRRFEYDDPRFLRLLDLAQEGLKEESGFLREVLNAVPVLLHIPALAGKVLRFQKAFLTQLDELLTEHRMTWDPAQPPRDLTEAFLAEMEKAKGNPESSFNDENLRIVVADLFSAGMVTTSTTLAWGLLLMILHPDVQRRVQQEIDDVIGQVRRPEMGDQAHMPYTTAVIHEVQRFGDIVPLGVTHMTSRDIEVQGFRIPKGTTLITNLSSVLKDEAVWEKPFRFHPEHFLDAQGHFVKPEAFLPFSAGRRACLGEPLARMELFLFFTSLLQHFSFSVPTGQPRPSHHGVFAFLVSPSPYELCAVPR
Description: Inhibition of CYP2D6 by fluorescence assay
Data set [6] concerns the target CYP3A4 (Homo sapiens, UniProt P08684). Description: in vitro.
Description: Inhibition of CYP3A4 by fluorescence assay
Data set [7] is described as follows: in vitro. To be noted: human, liver microsomes. (Microsomes from liver hold many membrane-bound enzymes, among them those of drug oxidation.)
Description: Intrinsic clearance in human liver microsomes
Data set [8] is described as follows: in vitro. To be noted: human, Caco-2.
Description: Efflux ratio of apparent permeability from basolateral to apical side to apical to basolateral side in human Caco-2 cells at 10 uM after 21 days
Data set [9] in a line: in vitro. Conditions: human, Caco-2. The source holds these as a separate data set.
Description: (§1) Apparent permeability from basolateral to apical side of human Caco-2 cells at 10 uM after 21 days
Data set [10] in a line: in vitro. Conditions: human, Caco-2. The source holds these as a separate data set.
Description: (§2) Apparent permeability from apical to basolateral side of human Caco-2 cells at 10 uM after 21 days
Data set [11] has as its system Caco-2. Conditions: human, caco-2, 10 µM.
Description: as §2
The subject of data set [12] is Caco-2. To be noted: human, caco-2, 10 µM. The source holds these as a separate data set.
Description: as §1
The target of data set [13] is Cytochrome P450 3A4 (Homo sapiens, UniProt P08684). The experiment in a line: Inhibition of CYP3A4 in human liver microsomes after 25 mins. Type of data set: ADME, Microsome. To be noted: TDE = time-dependent effect.
Chain of Cytochrome P450 3A4 (P08684 whole entry): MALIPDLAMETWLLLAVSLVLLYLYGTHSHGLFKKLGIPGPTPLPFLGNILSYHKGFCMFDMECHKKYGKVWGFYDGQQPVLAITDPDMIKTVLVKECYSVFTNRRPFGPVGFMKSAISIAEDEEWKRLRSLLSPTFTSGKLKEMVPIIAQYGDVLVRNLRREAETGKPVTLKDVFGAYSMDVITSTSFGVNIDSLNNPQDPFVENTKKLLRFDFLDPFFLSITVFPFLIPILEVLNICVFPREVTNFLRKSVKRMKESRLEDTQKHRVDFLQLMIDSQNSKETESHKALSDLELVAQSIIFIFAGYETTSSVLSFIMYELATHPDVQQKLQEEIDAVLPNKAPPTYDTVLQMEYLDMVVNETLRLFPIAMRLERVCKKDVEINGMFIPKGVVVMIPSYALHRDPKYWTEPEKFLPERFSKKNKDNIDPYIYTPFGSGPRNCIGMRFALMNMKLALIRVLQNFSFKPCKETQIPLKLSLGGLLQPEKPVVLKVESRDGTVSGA

Chain of hERG (KCNH2) (Q12809 whole entry): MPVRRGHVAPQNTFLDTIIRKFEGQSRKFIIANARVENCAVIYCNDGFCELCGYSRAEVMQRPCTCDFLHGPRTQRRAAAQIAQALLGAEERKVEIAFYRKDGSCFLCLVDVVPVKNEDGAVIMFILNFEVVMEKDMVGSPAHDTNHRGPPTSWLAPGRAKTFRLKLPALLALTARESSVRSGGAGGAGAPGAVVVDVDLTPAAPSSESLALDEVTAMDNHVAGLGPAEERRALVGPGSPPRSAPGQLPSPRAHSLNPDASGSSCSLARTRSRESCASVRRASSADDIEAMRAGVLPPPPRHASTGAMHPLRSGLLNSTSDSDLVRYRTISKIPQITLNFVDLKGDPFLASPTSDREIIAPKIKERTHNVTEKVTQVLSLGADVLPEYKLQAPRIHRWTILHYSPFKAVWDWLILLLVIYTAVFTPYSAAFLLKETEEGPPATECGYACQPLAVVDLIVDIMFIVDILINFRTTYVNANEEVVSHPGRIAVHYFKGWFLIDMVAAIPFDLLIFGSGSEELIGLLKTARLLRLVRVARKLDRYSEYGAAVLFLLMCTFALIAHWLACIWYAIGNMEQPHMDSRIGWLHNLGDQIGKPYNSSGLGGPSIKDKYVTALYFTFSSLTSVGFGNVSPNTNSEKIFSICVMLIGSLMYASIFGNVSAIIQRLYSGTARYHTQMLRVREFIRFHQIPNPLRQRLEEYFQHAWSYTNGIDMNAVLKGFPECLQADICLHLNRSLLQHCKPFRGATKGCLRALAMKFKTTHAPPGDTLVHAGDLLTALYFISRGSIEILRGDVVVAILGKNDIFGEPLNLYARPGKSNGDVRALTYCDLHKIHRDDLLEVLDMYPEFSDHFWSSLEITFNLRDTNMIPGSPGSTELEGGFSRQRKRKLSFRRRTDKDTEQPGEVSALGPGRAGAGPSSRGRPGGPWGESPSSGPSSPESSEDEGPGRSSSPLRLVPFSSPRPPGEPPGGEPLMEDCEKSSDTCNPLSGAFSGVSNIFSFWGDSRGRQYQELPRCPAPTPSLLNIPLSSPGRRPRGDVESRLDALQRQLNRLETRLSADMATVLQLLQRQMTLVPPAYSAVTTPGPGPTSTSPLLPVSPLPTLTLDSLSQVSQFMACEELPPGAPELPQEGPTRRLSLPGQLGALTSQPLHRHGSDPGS
Chain of CYP3A4 (P08684 whole entry): as the sequence (P08684 whole entry) above
Chain of Sodium-dependent noradrenaline transporter (P23975 whole entry): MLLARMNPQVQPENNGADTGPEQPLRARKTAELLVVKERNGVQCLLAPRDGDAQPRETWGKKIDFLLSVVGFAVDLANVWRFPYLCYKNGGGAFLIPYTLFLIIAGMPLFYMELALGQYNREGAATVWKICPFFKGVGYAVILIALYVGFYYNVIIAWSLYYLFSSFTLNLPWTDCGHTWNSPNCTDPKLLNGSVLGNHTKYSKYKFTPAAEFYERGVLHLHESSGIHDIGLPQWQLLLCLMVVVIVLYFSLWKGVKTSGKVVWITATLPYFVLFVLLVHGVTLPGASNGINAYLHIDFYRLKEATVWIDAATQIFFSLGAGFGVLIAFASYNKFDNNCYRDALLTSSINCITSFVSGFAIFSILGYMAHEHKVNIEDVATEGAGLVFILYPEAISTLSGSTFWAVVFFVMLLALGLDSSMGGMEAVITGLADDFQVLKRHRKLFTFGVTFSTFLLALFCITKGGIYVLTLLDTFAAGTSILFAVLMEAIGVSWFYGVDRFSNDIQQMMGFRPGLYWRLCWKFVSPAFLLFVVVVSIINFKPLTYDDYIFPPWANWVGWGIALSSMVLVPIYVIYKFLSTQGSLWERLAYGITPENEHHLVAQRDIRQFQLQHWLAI
Chain of Sodium-dependent serotonin transporter (P31645 whole entry): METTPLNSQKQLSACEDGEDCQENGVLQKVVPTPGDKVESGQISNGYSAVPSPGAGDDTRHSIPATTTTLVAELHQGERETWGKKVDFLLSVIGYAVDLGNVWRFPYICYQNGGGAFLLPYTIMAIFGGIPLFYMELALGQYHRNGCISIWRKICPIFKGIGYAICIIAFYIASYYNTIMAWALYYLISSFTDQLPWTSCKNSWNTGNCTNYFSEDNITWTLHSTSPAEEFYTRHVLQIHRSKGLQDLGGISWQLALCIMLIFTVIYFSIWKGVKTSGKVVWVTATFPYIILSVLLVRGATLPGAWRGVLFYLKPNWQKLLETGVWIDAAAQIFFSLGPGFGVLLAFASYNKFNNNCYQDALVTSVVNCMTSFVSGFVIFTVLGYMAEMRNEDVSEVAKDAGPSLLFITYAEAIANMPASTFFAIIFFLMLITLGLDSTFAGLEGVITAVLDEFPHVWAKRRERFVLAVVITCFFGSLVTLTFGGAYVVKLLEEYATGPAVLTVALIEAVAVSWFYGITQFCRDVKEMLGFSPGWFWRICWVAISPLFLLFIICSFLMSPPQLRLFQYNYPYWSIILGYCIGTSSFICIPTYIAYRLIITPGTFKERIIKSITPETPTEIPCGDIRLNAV

Regarding `N#Cc1ccccc1CN(c1ccc2[nH]ccc2c1)C1CCNCC1`, the inhibition constant (Ki) is 3.98 nM in data set [1], 6.31 nM in [2] and 501 nM in [3].
On to `COc1cccc(CN(c2ccc3[nH]ccc3c2)C2CCNCC2)c1`, for which the figures for the inhibitory constant (Ki) in [1], in data set [2] and in data set [3] were 1.58 nM, 3.98 nM and 79.4 nM, respectively. The concentration for an effect of 20% (IC20) in [4] amounted to 1000 nM.
For `CNCCN(c1ccccc1)c1ccc2[nH]ccc2c1`, the figures for the Ki in data set [1], in data set [2] and in data set [3] were 398 nM, 200 nM and 501 nM, respectively. The concentration for an effect of 20% (IC20) is 40000 nM in data set [5] and 2000 nM in data set [6].
Take `c1ccc(CN(c2ccc3[nH]ccc3c2)C2CCNC2)cc1` (stereo unspecified): the Ki in data set [1] was 20 nM; in [2] it was 10 nM; in [3], 31.6 nM. The IC20 in [5] was 2000 nM; in [4], less than 1000 nM; in data set [6] it was 2000 nM. The intrinsic metabolic clearance (microsomal CLint) in data set [7] was found to be 36 µL/min/mg.
In the case of `Fc1ccc(CN(c2ccc3[nH]ccc3c2)C2CCNCC2)cc1`, the inhibitory constant (Ki) in [1] is 2 nM; in [2] it was 251 nM; in data set [3], 251 nM.
For `NS(=O)(=O)c1cccc(CN(c2ccc3[nH]ccc3c2)C2CCNCC2)c1`, in data set [8], the efflux ratio at 10 µM was 4.2. Further, the Papp B→A at 10 µM in data set [9] turned out to be 3 ×10⁻⁶ cm/s. The inhibitory constant (Ki) in data set [1] is 6.31 nM; in [2], 79.4 nM; in data set [3], 25.1 nM. Also, in [10], the apparent permeability from apical to basolateral (Papp A→B) at 10 µM was 0.7 ×10⁻⁶ cm/s. Moreover, the concentration for an effect of 20% (IC20) in data set [5] was 3000 nM; in [4], greater than 10000 nM; in data set [6], 2000 nM. This compound had a microsomal CLint in data set [7] of 2 µL/min/mg.
As to `Cn1ccc2cc(N(Cc3ccccc3)C3CCNCC3)ccc21`, the Papp is reported as 7 ×10⁻⁶ cm/s in data set [11] and 4 ×10⁻⁶ cm/s in [12]. The inhibition constant (Ki) in [1] is 3.98 nM; in [2] it was 25.1 nM; in data set [3], 79.4 nM. The concentration for an effect of 20% (IC20) in data set [5] is greater than 50000 nM; in data set [4], 5100 nM; in data set [6], 5000 nM. The same compound gave an intrinsic clearance (microsomal CLint) in [7] of 26 µL/min/mg.
With `CNCCC(c1ccccc1)c1ccc2[nH]ccc2c1` (stereo unspecified), the inhibitory constant (Ki) in data set [1] is 31.6 nM; in data set [3], 200 nM. Moreover, the figures for the IC20 in data set [5], in data set [4] and in data set [6] were 5000 nM, less than 1000 nM and 3000 nM, respectively. Also, in data set [7], the microsomal CLint came out at 11 µL/min/mg.
Regarding `c1ccc(CN(c2ccc3sccc3c2)C2CCNCC2)cc1`, the apparent permeability coefficient (Papp) in [11] came to 1.4 ×10⁻⁶ cm/s; in data set [12], 0.1 ×10⁻⁶ cm/s. Also, the Ki in data set [1] is 12.6 nM; in data set [2], 200 nM; in [3], 200 nM. Further, the values for the IC20 in data set [5], in [4] and in data set [6] were 35000 nM, 1000 nM and 19000 nM, respectively. For the same compound, in data set [7], the intrinsic metabolic clearance (microsomal CLint) was found to be 18 µL/min/mg.
Consider `Fc1ccccc1CN(c1ccc2[nH]ccc2c1)C1CCNCC1`, for which the figures for the Ki in [1], in data set [2] and in data set [3] were 3.98 nM, 12.6 nM and 126 nM, respectively.
Regarding `c1ccc(N(c2ccc3[nH]ccc3c2)C2CCNCC2)cc1`, the Ki was 1000 nM in [1], 1260 nM in data set [2] and greater than 1580 nM in data set [3]. Besides, the 20% effect concentration (IC20) was 14000 nM in [5] and 26000 nM in data set [6].
`c1ccc(CN(c2ccc3[nH]ccc3c2)C2CCNCC2)cc1` returned a Papp B→A at 10 µM in data set [9] of 6 ×10⁻⁶ cm/s. Moreover, in data set [10], the Papp A→B at 10 µM stood at 6 ×10⁻⁶ cm/s. For the same compound, the values for the IC20 in data set [5], in [4] and in [6] were 3000 nM, 1000 nM and 100 nM, respectively. In addition, the “inhibition (INH)” value in data set [13] is recorded as “tde”. Besides, the microsomal CLint in data set [7] turned out to be 17 µL/min/mg.
For `c1ccc(CN(c2ccc3[nH]ccc3c2)C2CCCNC2)cc1` (stereo unspecified), the results for the Ki in data set [1], in [2] and in data set [3] were 6.31 nM, 63.1 nM and 39.8 nM, respectively. Moreover, the results for the IC20 in data set [5], in [4] and in [6] were 5000 nM, less than 1000 nM and 300 nM, respectively. The intrinsic metabolic clearance (microsomal CLint) in data set [7] turned out to be 23 µL/min/mg.
As to `c1ccc(CN(c2ccc3[nH]ncc3c2)C2CCNCC2)cc1`, the values for the inhibition constant Ki in [1], in data set [2] and in data set [3] were 1.26 nM, 15.8 nM and 50.1 nM, respectively. Also, the concentration for an effect of 20% (IC20) in data set [5] was 400 nM; in data set [4], less than 1000 nM; in data set [6], 500 nM.
Take `CC(c1ccccc1)N(c1ccc2[nH]ccc2c1)C1CCNCC1` (stereo unspecified): the results for the Ki in [1], in data set [2] and in [3] were 39.8 nM, 1580 nM and 1580 nM, respectively.
For `Fc1cccc(CN(c2ccc3[nH]ccc3c2)C2CCNCC2)c1`, the inhibitory constant (Ki) in data set [1] was 1.26 nM; in [2], 12.6 nM; in data set [3] it was 79.4 nM.
Regarding `N#Cc1ccc(CN(c2ccc3[nH]ccc3c2)C2CCNCC2)cc1`, the Ki is 2.51 nM in data set [1], 1000 nM in data set [2] and 794 nM in [3].
Consider `c1ccc(CCN(c2ccc3[nH]ccc3c2)C2CCNCC2)cc1`, for which the Ki is 6.31 nM in data set [1], 50.1 nM in data set [2] and 158 nM in data set [3].
Turning to `N#Cc1cccc(CN(c2ccc3[nH]ccc3c2)C2CCNCC2)c1`, the efflux ratio at 10 µM in [8] is 3.6. For the same compound, in data set [9], the Papp B→A at 10 µM stood at 14 ×10⁻⁶ cm/s. For the same compound, the Ki is 0.251 nM in data set [1], 10 nM in [2] and 31.6 nM in data set [3]. Moreover, the Papp A→B at 10 µM in data set [10] stood at 4 ×10⁻⁶ cm/s. For the same compound, the 20% effect concentration (IC20) was 500 nM in data set [5], less than 1000 nM in data set [4] and 2000 nM in [6]. This compound gave a microsomal CLint in data set [7] of 13 µL/min/mg.
With `c1cc2cc(N(CC3CCOCC3)C3CCNCC3)ccc2[nH]1`, the inhibitory constant (Ki) in data set [1] was 39.8 nM; in data set [2], 39.8 nM; in data set [3], 501 nM. Also, the figures for the IC20 in [5] and in data set [6] were 27000 nM and greater than 50000 nM, respectively.

A word on the Ki: it is the dissociation constant of the complex between target and ligand, obtained from inhibition or displacement. Lower therefore signals a stronger hold on the target. A word on the IC20: it is the concentration needed for an effect of 20%. For orientation: microsomal CLint means the rate of metabolic loss divided by the concentration. The term efflux ratio denotes the permeability from basolateral to apical divided by that in the opposite direction, in the common usage. In general, Papp B→A refers to the apparent permeability from the basolateral to the apical side of a cell layer. In general, Papp A→B refers to the apparent permeability from the apical to the basolateral side of a cell layer. A higher Papp A→B goes with ready permeation. As a reminder, the Papp is a coefficient for how fast a substance crosses the barrier. A lower Papp goes with slow passage.
